The test system of data set [1] is Pseudomonas aeruginosa. Nature of the data set: Anti-bacterial effect in Pseudomonas aeruginosa PAO1 assessed as reduction in bacterial survival by measuring inhibition rate at 0.4 microg/ml measured after 24 hrs incubation relative to control. The format is functional.
In data set [2] the test system is Pseudomonas aeruginosa. Nature of the data set: Antibacterial activity against Pseudomonas aeruginosa PAO1 at logarithmic growth phase assessed as growth inhibition at 153.6 microg/ml measured upto 25 hrs by growth curve assay. The data set is classed as functional, organism-based. To be noted: dose 153.6 µg/ml.
Data set [3] has as its system Pseudomonas aeruginosa. Nature of the data set: Antibacterial activity against Pseudomonas aeruginosa 27853 at logarithmic growth phase assessed as growth inhibition at 153.6 microg/ml measured upto 25 hrs by growth curve assay. The format is functional, organism-based. Particulars: dose 153.6 µg/ml.
In data set [4] the test system is Pseudomonas aeruginosa. Kind of data set: Inhibition of protease in logarithmic growth phase Pseudomonas aeruginosa PAO1 assessed as inhibition rate at 102.4 microg/ml measured after 32 hrs. Particulars: dose 102.4 µg/ml.
Data set [5] has as its system Escherichia coli. Kind of data set: Anti-microbial activity against penicillin-susceptible Escherichia coli ATCC25922 incubated for 20 hrs By CLSI based micro-dilution method. The data set is classed as functional. In general terms: In broth dilution the organism is exposed to a series of concentrations in liquid medium.
For data set [6], the system named is Pseudomonas aeruginosa. Kind of data set: Induction of anti-bacterial effect in Pseudomonas aeruginosa PAO1 assessed as synergistic effect by measuring reduction in bacterial survival in presence of clarithromycin at 16 to 128 microg/ml measured after 24 hrs incubation. The format is functional, organism-based. Particulars: dose 16-128 µg/ml.
Data set [7] concerns Pseudomonas aeruginosa. Nature of the data set: Induction of anti-bacterial effect in Pseudomonas aeruginosa PAO1 assessed as synergistic effect by measuring reduction in bacterial survival in presence of ciprofloxacin measured after 24 hrs incubation. The data set is classed as functional, organism-based. Particulars: dose 8-128 µg/ml.
For data set [8], the system named is Bacillus subtilis. Nature of the data set: Anti-microbial activity against Bacillus subtilis ATCC9372 incubated for 20 hrs By CLSI based micro-dilution method. The data set is classed as functional.
Data set [9] concerns Pseudomonas aeruginosa. Nature of the data set: Anti-microbial activity against penicillin-susceptible Pseudomonas aeruginosa 27853 incubated for 20 hrs By CLSI based micro-dilution method. The format is functional.
Data set [10] deals with Staphylococcus aureus. Kind of data set: Anti-microbial activity against methicillin-resistant Staphylococcus aureus ATCC43300 incubated for 20 hrs By CLSI based micro-dilution method. The format is functional.
The subject of data set [11] is Pseudomonas aeruginosa. Nature of the data set: Anti-microbial activity against Pseudomonas aeruginosa PAO1 incubated for 20 hrs By CLSI based micro-dilution method. The data set is classed as functional.
Data set [12] has as its system Pseudomonas aeruginosa. Kind of data set: Induction of anti-bacterial effect in Pseudomonas aeruginosa PAO1 assessed as synergistic effect by measuring reduction in bacterial survival in presence of ciprofloxacin at 16 to 128 microg/ml measured after 24 hrs incubation. The data set is classed as functional, organism-based. Particulars: dose 16-128 µg/ml.
The test system of data set [13] is Staphylococcus aureus. Kind of data set: Anti-microbial activity against erythromycin-susceptible Staphylococcus aureus ATCC25923 incubated for 20 hrs By CLSI based micro-dilution method. The format is functional.
For data set [14], the system named is Pseudomonas aeruginosa. Nature of the data set: Antibiofilm activity against logarithmic growth phase Pseudomonas aeruginosa PAO1 assessed as inhibition of biofilm formation at 16 microg/ml incubated for 20 hrs by crystal violet staining based analysis. The format is functional. To be noted: for inhibition: dose 16.0 µg/ml.
Data set [15] relates to Bacillus pumilus. Kind of data set: Anti-microbial activity against Bacillus pumilus CMCC63202 incubated for 20 hrs By CLSI based micro-dilution method. The format is functional.
Data set [16] relates to Erythrocyte. Nature of the data set: Hemolytic activity in mouse RBC isolated from eye ball assessed as hemolysis at 256 microg/ml incubated for 1 hr. The data set is classed as toxicity, cell-based. Particulars: dose 256 µg/ml.
In data set [17] the test system is Pseudomonas aeruginosa. Kind of data set: Antibiofilm activity against logarithmic growth phase Pseudomonas aeruginosa PAO1 assessed as inhibition of biofilm formation at 32 microg/ml incubated for 20 hrs by crystal violet staining based analysis. The data set is classed as functional.
Data set [18] concerns Pseudomonas aeruginosa. Kind of data set: Induction of anti-bacterial effect in Pseudomonas aeruginosa PAO1 assessed as synergistic effect by measuring reduction in bacterial survival in presence of clarithromycin measured after 24 hrs incubation. The data set is classed as functional, organism-based. Particulars: dose 8-128 µg/ml.
The subject of data set [19] is Pseudomonas aeruginosa. Nature of the data set: Induction of anti-bacterial effect in Pseudomonas aeruginosa PAO1 assessed as synergistic effect by measuring reduction in bacterial survival in presence of ciprofloxacin at 128 microg/ml measured after 24 hrs incubation relative to control. The format is functional. Particulars: dose 128 µg/ml.
Data set [20] has as its system Pseudomonas aeruginosa. Kind of data set: Anti-virulence activity against logarithmic growth phase Pseudomonas aeruginosa PAO1 assessed as inhibition of Rhamnolipid production at 102.4 microg/ml measured after 24 hrs. The data set is classed as functional.
Data set [21] can be described thus: Inhibition of quorum sensing system in Pseudomonas aeruginosa PAO1 at logarithmic growth period assessed as inhibition of pyocyanin production at 102.4 microg/ml incubated for 18 hrs by pyocyanin inhibition assay. Particulars: dose 102.4 µg/ml.
Data set [22] deals with Pseudomonas aeruginosa. Kind of data set: In vivo anti-bacterial effect in Pseudomonas aeruginosa PAO1 infected in Kunming mouse assessed as reduction in bacterial survival at 25 mg/kg, ip measured after 1 hr incubation. The data set is classed as functional, organism-based.
The test system of data set [23] is Pseudomonas aeruginosa. Kind of data set: In vivo induction of anti-bacterial effect in Pseudomonas aeruginosa PAO1 infected in Kunming mouse assessed as synergistic effect by measuring reduction in bacterial survival in presence of 15 mg/kg ciprofloxacin at 5 mg/kg, ip measured after 1 hr incubation relative to ciprofloxacin alone. The data set is classed as functional, organism-based.

Data set [24] is described as follows: Inhibition of quorum sensing system in Pseudomonas aeruginosa PAO1-pqsA-gfp assessed as reduction in fluorescence intensity measured upto 12 hrs by GFP reporter strain assay. To be noted: dose 32-128 µg/ml.
Data set [25] relates to Pseudomonas aeruginosa. Kind of data set: Induction of cell wall rupture in Pseudomonas aeruginosa PAO1 at 102.4 microg/ml measured after 24 hrs by scanning electron microscopy. The format is functional, organism-based. To be noted: dose 102.4 µg/ml.
The subject of data set [26] is Pseudomonas aeruginosa. Kind of data set: In vivo induction of anti-bacterial effect in Pseudomonas aeruginosa PAO1 infected in Kunming mouse assessed as synergistic effect by measuring reduction in bacterial survival in presence of 15 mg/kg ciprofloxacin at 25 mg/kg, ip measured after 1 hr incubation. The format is functional, organism-based.
Data set [27] relates to Pseudomonas aeruginosa. Nature of the data set: Inhibition of swarming movement of Pseudomonas aeruginosa PAO1 assessed as movement state of bacterial clusters after 24 hrs by swarming motility assay. The data set is classed as functional, organism-based. To be noted: dose 25.6-102.4 µg/ml.
A short description of data set [28]: Inhibition of quorum sensing system in Pseudomonas aeruginosa PAO1- rhlA-gfp assessed as reduction in fluorescence intensity measured upto 12 hrs by GFP reporter strain assay. Particulars: dose 32-128 µg/ml.
Data set [29] has as its system Pseudomonas aeruginosa. Kind of data set: Induction of cell morphological change in Pseudomonas aeruginosa PAO1 at 102.4 microg/ml measured after 24 hrs by scanning electron microscopy. The format is functional, organism-based. Particulars: dose 102.4 µg/ml.
The test system of data set [30] is Pseudomonas aeruginosa. Nature of the data set: Induction of morphological changes in biofilm of Pseudomonas aeruginosa PAO1 assessed as biofilm damage at 102.4 microg/ml measured after 24 hrs by scanning electron microscopy. The format is functional, organism-based. Particulars: dose 102.4 µg/ml.
Data set [31] in a line: Inhibition of quorum sensing system in Pseudomonas aeruginosa PAO1-lasB-gfp assessed as reduction in fluorescence intensity measured upto 12 hrs by GFP reporter strain assay. To be noted: dose 32-128 µg/ml.
Data set [32] can be described thus: Inhibition of quorum sensing system in Pseudomonas aeruginosa PAO1-gfp assessed as reduction in fluorescence intensity at 32 to 128 microg/ml measured upto 12 hrs by GFP reporter strain assay. Particulars: dose 32-128 µg/ml.

We go through six molecules from ChEMBL document CHEMBL5543127, “Design, Synthesis, and Biological Evaluation of 2-Phenoxyalkylhydrazide Benzoxazole Derivatives as Quorum Sensing Inhibitors with Strong Antibiofilm Effect” (J Med Chem, 2024).

Converted amounts (≈) assume the structure as drawn. The source made the active and inactive calls. No cut-off for these calls is given here. Bounds are passed on as bounds.

Take `O=C(O)c1cn(C2CC2)c2cc(N3CCNCC3)c(F)cc2c1=O` [CIPROFLOXACIN]: in data set [1], the inhibition at 0.4 µg/mL came out at 42%.

As for `CCCCCCCCCCC(=O)N/N=c1\sc2ccccc2n1C`, the result in data set [2] and in data set [3] was inactive. Also, the inhibition in data set [4] is above 20%. The MIC in data set [5], in [8], in data set [9], in [10], in data set [11] and in data set [13] was above 512 µg/mL each time. In data set [15], the MIC was above 512 µg/mL. Moreover, the result in [6] and in data set [12] was Active. Moreover, the Activity result in [7] was “Dose-Dependent Effect”; in [16] it was “Non-Toxic”; in data set [18], “Dose-Dependent Effect”; in data set [19], above 90%. Further, the inhibition entry in data set [14] was “Active”. Also, in data set [17], the inhibition at 32 µg/mL is above 25.4%.

With `O=C(CCCCOc1cccc(F)c1)NNc1nc2ccccc2o1`, the inhibition result in data set [4] was “inactive”. Besides, the MIC in [5] is above 512 µg/mL; in data set [8] it was above 512 µg/mL; in data set [9], 512 µg/mL (≈ 1490 µM); in data set [10], above 512 µg/mL; in data set [11], above 512 µg/mL; in data set [13], 512 µg/mL (≈ 1490 µM). The MIC in data set [15] was above 512 µg/mL. For the same molecule, the result in data set [6] and in [12] was Active. Besides, the inhibition at 102.4 µg/mL in data set [20] worked out at 52.1%. For the same molecule, the inhibition result in [21] and in [14] was “Active” throughout. For the same molecule, the Activity entry in [7] was “Dose-Dependent Effect”; in data set [16], “Non-Toxic”; in data set [18], “Dose-Dependent Effect”; in [19], above 90%. Moreover, the inhibition at 32 µg/mL in [17] was above 25.4%.

Take `O=C(COc1ccc(F)cc1)NNc1nc2ccccc2o1`: the result in [2], in data set [3], in data set [22], in data set [25] and in data set [29] was inactive. Moreover, the inhibition in data set [4] is 10%; in [21], 43.6%; in data set [24], “Dose-Dependent Effect”; in data set [27], “Dose-Dependent Effect”; in [28], “Dose-Dependent Effect”; in data set [31], “Dose-Dependent Effect”. The inhibition entry in data set [32] is “Dose-Dependent Effect”. Further, the MIC in data set [5] is above 512 µg/mL; in [8] it was 512 µg/mL (≈ 1700 µM); in [9], 512 µg/mL (≈ 1700 µM); in data set [10] it was above 512 µg/mL; in data set [11], 512 µg/mL (≈ 1700 µM); in [13] it was above 512 µg/mL. For the same molecule, in data set [15], the MIC is above 512 µg/mL. The result in data set [6], in [23], in data set [26], in data set [12] and in [30] was Active. In addition, the Activity result is “Dose-Dependent Effect” in data set [7], “Non-Toxic” in [16], “Dose-Dependent Effect” in data set [18] and above 90% in data set [19]. Further, in data set [14], the inhibition at 16 µg/mL was above 50%. In addition, in data set [17], the inhibition at 32 µg/mL is above 76.6%.

For `O=C(CCCCOc1ccc(F)cc1)NNc1nc2ccccc2o1`, the inhibition entry in data set [4] was “inactive”. Further, the MIC is above 512 µg/mL in data set [5]; above 512 µg/mL in data set [8]; 512 µg/mL (≈ 1490 µM) in [9]; above 512 µg/mL in [10]; above 512 µg/mL in data set [11]; above 512 µg/mL in data set [13]. Moreover, the MIC in [15] was above 512 µg/mL. The outcome in [6] and in data set [12] was Active. Also, in [21], the inhibition was 53.6%. In addition, the Activity entry is “Dose-Dependent Effect” in data set [7], “Non-Toxic” in data set [16], “Dose-Dependent Effect” in data set [18] and above 90% in data set [19]. Further, the inhibition result in data set [14] is “Active”. Also, the inhibition at 32 µg/mL in [17] is above 25.4%.

With `CC[C@H]1OC(=O)[C@H](C)[C@@H](O[C@H]2C[C@@](C)(OC)[C@@H](O)[C@H](C)O2)[C@H](C)[C@@H](O[C@@H]2O[C@H](C)C[C@H](N(C)C)[C@H]2O)[C@](C)(O)C[C@@H](C)CN(C)[C@H](C)[C@@H](O)[C@]1(C)O` [AZITHROMYCIN], the minimal inhibitory concentration (MIC) in data set [5] was found to be 128 µg/mL (≈ 171 µM); in data set [8], 0.25 µg/mL (≈ 0.334 µM); in data set [9], 16 µg/mL (≈ 21.4 µM); in [10] it was 256 µg/mL (≈ 342 µM); in data set [11], 256 µg/mL (≈ 342 µM); in data set [13] it was 0.25 µg/mL (≈ 0.334 µM). It took 0.25 µg/mL (≈ 0.334 µM) to inhibit growth in data set [15] (MIC). Besides, in data set [30], the outcome was Active.

As usually defined, the inhibition is the percentage by which the read-out fell short of the control. A word on the MIC: it is the lowest concentration that inhibits growth of the organism.
